Results: patent US20180012623A1, “Ionic Liquid, Lubricant, and Magnetic Recording Medium” (Dexerials Corporation, priority 2016, published 2018)
Like-named read-outs stand apart in the source and are kept apart here.

Legend:
[1] = Measurement of thermal stability (TG/DTA weight reduction temperature); assay type: physicochemical; details: for Weight reduction temperature 5% / Weight reduction temperature 10% / Weight reduction temperature 20%: TG/DTA, 30° C. to 600° C., 10° C./min, air 200 mL/min; for Weight reduction temperatures higher than those of Z-TETRAOL by: compared with Z-TETRAOL (Comparative Example 7C); for Weight reduction temperatures higher than those of Z-DOL by: compared with perfluoropolyether Z-DOL (Comparative Example 6C)
[2] = in acetonitrile; cited from earlier work
[3] = Solubility test of ionic liquids in Vertrel XF and n-hexane (visual observation)
Method: To a predetermined amount of Vertrel XF or n-hexane, the ionic liquid was added. Ultrasonic waves were applied to the resultant mixture for 5 minutes, followed by leaving the mixture to stand for 1 day. The solubility was visually observed.
After applying ultrasonic waves to the resultant for 5 minutes, the resultant was left to stand for 1 day. Thereafter, the solubility was visually observed and evaluated based on the following evaluation criteria. […] Similarly, after applying ultrasonic waves to the resultant for 5 minutes, the resultant was left to stand for 1 day. Thereafter, the solubility was visually observed and evaluated based on the following evaluation criteria.
Note that, the solubility was visually observed, and it was judged as soluble when it was transparent. Moreover, it was judged as not soluble (insoluble) when it was opaque or insoluble components were observed.
The results are presented in Table 2. • [Evaluation Criteria]
• 0.2% by mass or greater:
Soluble with addition of 0.2 parts by mass • Less than 0.2% by mass:
Insoluble with addition of 0.2 parts by mass
<<n-Hexane>> • 0.5% by mass or greater:
Soluble with addition of 0.5 parts by mass • Less than 0.5% by mass:
Insoluble with addition of 0.5 parts by mass

[4] = Vertrel XF [CF3(CHF)2CF2CF3], 25° C., 0.2 parts by mass added to 100 parts by mass, ultrasonic 5 minutes, left 1 day, visual
[5] = n-hexane, 25° C., 0.5 parts by mass added to 100 parts by mass, ultrasonic 5 minutes, left 1 day, visual

Row | Compound | Weight reduction temperature 5% [1] | Weight reduction temperature 10% [1] | Weight reduction temperature 20% [1] | Weight reduction temperatures higher than those of Z-TETRAOL by [1] | Weight reduction temperatures higher than those of Z-DOL by [1] | pKa [2] | further results
1 | nonafluorobutanesulfonic acid-1-dodecyl-2-undecylimidazolium [Ex. 1A] | 349.4 °C | 374.1 °C | 398.9 °C | ≥ 100 °C | ≥ 170 °C |  | 
2 | nonafluorobutanesulfonic acid-1-octadecyl-2-undecylimidazolium [Ex. 3A] | 328.3 °C | 368.1 °C | 396.7 °C | ≥ 80 °C | ≥ 170 °C |  | 
3 | O=S1(=O)NS(=O)(=O)C(F)(F)C(F)(F)C1(F)F [hexafluorocyclopropane-1,3-bis(sulfonyl)imide] |  |  |  |  |  | −0.8 | 
4 | CCCCCCCCCCCCCCCCCCn1ccnc1CCCCCCCCCCCCCCCCC.O=S(=O)(O)C(F)(F)C(F)(F)C(F)(F)C(F)(F)F [4A, nonafluorobutanesulfonic acid-1-octadecyl-2-heptadecyimidazole, reference compound] | 338.2 °C | 365.9 °C | 390.1 °C |  |  |  | Solubility, Fluorine-based solvent [3, 4]: less than 0.2% by mass; Solubility, n-Hexane [3, 5]: less than 0.5% by mass
5 | CCCCCCCCCCCCn1ccnc1CCCCCCCCCCC.O=S(=O)(NS(=O)(=O)C(F)(F)C(F)(F)C(F)(F)C(F)(F)F)C(F)(F)C(F)(F)C(F)(F)C(F)(F)F [Ex. 2A, bis(nonafluorobutanesulfonyl)imide-1-dodecyl-2-undecylimidazolium] | 337.7 °C | 361.6 °C | 383.8 °C | ≥ 100 °C | ≥ 160 °C |  | Solubility, Fluorine-based solvent [3, 4]: ≥ 0.2% by mass; Solubility, Fluorine-based solvent ([3]; Vertrel XF [CF3(CHF)2CF2CF3], 25° C., 0.2 parts by mass added to 100 parts by mass, ultrasonic 5 minutes, left 1 day, visual, listed as Example 2A): ≥ 0.2 % by mass; Solubility, n-Hexane [3, 5]: ≥ 0.5% by mass; Solubility, n-Hexane ([3]; n-hexane, 25° C., 0.5 parts by mass added to 100 parts by mass, ultrasonic 5 minutes, left 1 day, visual, listed as Example 2A): ≥ 0.5 % by mass
6 | CCCCCCCCCCCCCCCCCC[n+]1ccn(CCCC)c1.O=S1(=O)[N-]S(=O)(=O)C(F)(F)C(F)(F)C1(F)F [2A, hexafluorocyclopropane-1,3-bis(sulfonyl)imide-1-butyl-3-n-octadecylimidazolium, reference compound] | 347.2 °C | 367.0 °C | 387.8 °C |  |  |  | Solubility, Fluorine-based solvent [3]: less than 0.2% by mass; Solubility, n-Hexane [3]: less than 0.5% by mass
7 | CCCCCCCCCCCCCCCCCCn1ccnc1CCCCCCCCCCC.O=S(=O)(NS(=O)(=O)C(F)(F)C(F)(F)C(F)(F)C(F)(F)F)C(F)(F)C(F)(F)C(F)(F)C(F)(F)F [Ex. 4A, bis(nonafluorobutanesulfonyl)imide-1-octadecyl-2-undecylimidazolium] | 329.1 °C | 362.4 °C | 388.4 °C | ≥ 90 °C | ≥ 160 °C |  | 
8 | nonafluorobutanesulfonic acid-1-octadecylimidazolium [1A, reference compound] | 349.3 °C | 375.0 °C | 397.5 °C |  |  |  | 
9 | pentadecafluorooctanoic acid octadecyl ammonium [5A, reference compound] | 206.9 °C | 215.8 °C | 223.4 °C |  |  |  | Thermal stability (in words) ([1]; summary of Table 3): lacking in thermal stability
10 | nonafluorobutanesulfonic acid-2-heptadecylimidazole [3A, reference compound] | 365.4 °C | 390.5 °C | 414.3 °C |  |  |  | 
11 | perfluorocyclopropane sulfoimide |  |  |  |  |  | −0.8 | 
12 | F[B-](F)(F)F.[H+] [tetrafluoroboric acid] |  |  |  |  |  | 1.8 | 
13 | O=S(=O)(NS(=O)(=O)C(F)(F)C(F)(F)C(F)(F)C(F)(F)F)C(F)(F)C(F)(F)C(F)(F)C(F)(F)F [bis(nonafluorobutanesulfonyl)imide] |  |  |  |  |  | 0.0 | 
